One series deals with Ser^1981 in ATM. Nature of the series: Ser^1981 phosphorylation of ATM in primary fibroblasts after treatment with agents. Type of series: cell-based, human. To be noted: for Phosphorylation of ATM: over one and five hours after exposure. Here is the method: Another aspect of the present invention provides a method of detecting DNA damage in a cell by identifying the activation state of ATM kinase.
293T cells, HeLa cells and 1070SK primary human foreskin fibroblasts (HFF) (>passage 20, ATCC) were cultured in Dulbecco's Modification of Eagle's Medium (DMEM) supplemented with 10% fetal bovine serum (FBS). GM00637 and GM09607 fibroblasts were grown in DMEM containing 15% FBS. GM00536 lymphoblast cells were grown in RPMI supplemented with 10% fetal calf serum. 293T cells were transfected using FUGENE™ (Roche, Indianapolis, Ind.) and HeLa cells, GM00637 and GM09607 with LIPOFECTAMINE™ (INVITROGEN™ Corp., Carlsbad, Calif.). Metabolic labeling was performed by pre-equilibrating cells in phosphate-free media for three hours prior to the addition of 0.5 mCi/ml ^32P orthophosphate (PerkinElmer Life Sciences Inc., Boston, Mass.) for 30 minutes. Inhibition of DNA synthesis and analysis of G2/M checkpoint after irradiation was assessed using well-known methods (e.g., Xu, et al. (2001) Mol. Cell. Biol. 21:3445-3450). Wortmannin was added to samples on ice 15 minutes prior to reactions and 5 μM manganese and 1 μg sonicated calf thymus DNA were present or absent. Proteins were crosslinked by incubating cells in formaldehyde/phosphate-buffered saline (PBS) for 10 minutes at room temperature. Formaldehyde was washed out using PBS containing 100 mM glycine and immunoprecipitation was then performed. Hypotonic swelling was performed for 1 hour in PBS containing 0.45% glucose (w/v) and 1% FBS with the NaCl concentration reduced to either 50 mM or 100 mM. HFF were incubated with chloroquine in DMEM containing 10% FBS for four hours. Prior to an eight hour incubation with Trichostatin A, HFF was grown for 24 hours in DMEM containing 0.1% FBS. […] For immunofluoresence experiments, HFF grown on glass slides were fixed in 50% methanol/50% acetone for two hours at −20° C. Cells were incubated with primary antibodies at 1/1000 (H2AXγ; Upstate, Charlottesville, Va.) and secondary antibodies at 1/500 (Cy3 anti-mouse and FITC anti-rabbit; Jackson ImmunoResearch Laboratories, Inc., West Grove, Pa.) in PBS, 10% FBS for one hour.
Mammalian cell extracts were prepared in buffer A. Cleared supernatants were immunoprecipitated with anti-FLAG® M2 sepharose or anti-ATM D1611 (Alligood, et al. (2000) Hybridoma 19:317-321) and protein A/G agarose. Beads were washed twice with buffer A and twice with RIPA buffer. Co-immunoprecipitation was performed in buffer B: 50 mM Tris (pH 7.5), 150 mM NaCl, 0.5% TWEEN® 20, 0.2% NP-40, 50 mM NaF, 1 mM AEBSF, and 1x protease inhibitor mixture (Roche, Indianapolis, Ind.).
Western blotting was performed with anti-FLAG® M5 (Sigma-Aldrich, St. Louis, Mo.), anti-ATM MAT3, anti-GST (Amersham Pharmacia Biotech, Uppsala, Sweden) or anti-6x-His (Sigma-Aldrich, St. Louis, Mo.).

A further series deals with ATM protein. Put plainly: ATM phosphorylation after chromatin-modifying treatments (immunoblot and immunofluorescence). It is filed as cell-based, human. The text has this:
Since such a high fraction of cellular ATM becomes phosphorylated so rapidly in the presence of so few DNA strand breaks, it is unlikely that the ATM oligomers could require direct binding to DNA strand breaks for activation and autophosphorylation. Therefore, the introduction of DNA strand breaks may cause a change in the nucleus that activates ATM at a distance from the break itself. As DNA strand breaks introduced by ionizing irradiation rapidly alter topological constraints on DNA (Roti Roti and Wright (1987) Cytometry 8:461-467; Jaberaboansari, et al. (1988) Radiat. Res. 114:94-104; Malyapa, et al. (1996) Int. J. Radiat. Oncol. Biol. Phys. 35:963-973),alterations in some aspect of chromatin structure fit the criteria of being a rapid change and being able to act a distance in the nucleus. Chromatin and chromosome structures can be altered in the absence of DNA breaks by hypotonic conditions (Earnshaw, and Laemmli (1983) J. Cell Biol. 96:84-93; Jeppesen, et al. (1992) Chromosoma 101:322-332), exposure to chloroquine (Krajewski (1995) FEBS Letters 361:149-152; Jensen, et al. (1994) Cancer Res. 54:2959-2963; Snyder (2000) Environ. Mol. Mutagen. 35:13-21), or treatment with histone deaceylase inhibitors (Krajewski (1999) J. Biomol. Struct. Dynam. 16:1097-1106; Yoshida, et al. (1995) BioEssays 17:423-430; Kuo and Allis (1998) BioEssays 20:615-626). […]

The next series concerns HFF. Nature of the series: Cell death of HFF during incubation. Conditions: HFF incubated with chloroquine four hours. Here is the method:
293T cells, HeLa cells and 1070SK primary human foreskin fibroblasts (HFF) (>passage 20, ATCC) were cultured in Dulbecco's Modification of Eagle's Medium (DMEM) supplemented with 10% fetal bovine serum (FBS). GM00637 and GM09607 fibroblasts were grown in DMEM containing 15% FBS. GM00536 lymphoblast cells were grown in RPMI supplemented with 10% fetal calf serum. 293T cells were transfected using FUGENE™ (Roche, Indianapolis, Ind.) and HeLa cells, GM00637 and GM09607 with LIPOFECTAMINE™ (INVITROGEN™ Corp., Carlsbad, Calif.). Metabolic labeling was performed by pre-equilibrating cells in phosphate-free media for three hours prior to the addition of 0.5 mCi/ml ^32P orthophosphate (PerkinElmer Life Sciences Inc., Boston, Mass.) for 30 minutes. Inhibition of DNA synthesis and analysis of G2/M checkpoint after irradiation was assessed using well-known methods (e.g., Xu, et al. (2001) Mol. Cell. Biol. 21:3445-3450). Wortmannin was added to samples on ice 15 minutes prior to reactions and 5 μM manganese and 1 μg sonicated calf thymus DNA were present or absent. Proteins were crosslinked by incubating cells in formaldehyde/phosphate-buffered saline (PBS) for 10 minutes at room temperature. Formaldehyde was washed out using PBS containing 100 mM glycine and immunoprecipitation was then performed. […]

A further series has as its system HeLa cells. Nature of the series: Radioprotection assay (colony formation after irradiation). It is filed as cell-based. To be noted: for Average Number of Colonies*: 2 μg/ml chloroquine one hour, washed one hour, 1000 cells plated. Here is the method:
HeLa cells were treated with 2 μg/ml of chloroquine for one hour, washed for one hour, and irradiated at 2 or 6 Gy. Subsequently, 1000 cells were plated and assessed for colony formation.

The next series has as its system Ser^1981 of ATM. Put plainly: Ser^1981 phosphorylation following irradiation of human diploid fibroblasts. It is filed as cell-based. Here is the method:
Autophosphorylation of Ser^1981 was determined using glutathione-S-transferase (GST) fusion proteins containing various lengths of ATM as substrates of the ATM kinase in in vitro kinase reactions. A polypeptide containing the appropriate serine residue at 1981 was an excellent in vitro substrate, whereas a Ser^1981→Ala mutant was not phosphorylated by ATM whether the read-out was incorporation of radioactive phosphate or binding by the α-Ser^1981-P antibody. […] This concentration of wortmannin inhibits both ATM and DNA-dependent protein kinase (DNA-PK), but not ataxia- and Rad3-related protein (ATR), in vivo (Sarkaria, et al. (1998) Cancer Res. 58:4375-4382). To exclude DNA-PK as a responsible kinase, phosphorylation of Ser^1981 was determined in a cell line lacking DNA-PK activity. The kinetics and levels of IR-induced phosphorylation of Ser^1981 were identical to those in a similar cell line containing DNA-PK activity.

Where [1] appears, read: one hour following exposure, 2 nM camptothecin, 17 nM etoposide or 0.1% H2O2.

With `OO` [H2O2], in the series with Ser^1981 in ATM (setting [1]), the “Phosphorylation of Ser^1981 in ATM” value is listed as “detected”. Turning to `COS(C)(=O)=O` [MMS, methlymethanesulfonate], the “Phosphorylation of Ser^1981 in ATM” value with Ser^1981 in ATM (five hours after treatment, compared with one hour) is “more prominent phosphorylation”.

Turning to `CC(/C=C/C(=O)NO)=C\[C@@H](C)C(=O)c1ccc(N(C)C)cc1` [Trichostatin, Trichostatin A], the “phosphorylation of ATM protein” value in the series with ATM protein was “induced rapid and diffuse phosphorylation”. Turning to `C[C@@]1(CO)[C@H](O)CC[C@@]2(C)[C@H]1CC[C@H]1C[C@@H]3C[C@@]12CC[C@]3(O)CO` [aphidicolin], the “Phosphorylation of ATM” value in the series on Ser^1981 in ATM is recorded as “Little or no phosphorylation”. Turning to `CC[C@@]1(O)C(=O)OCc2c1cc1n(c2=O)Cc2cc3ccccc3nc2-1` [camptothecin], the “Phosphorylation of Ser^1981 in ATM” value in the series on Ser^1981 in ATM (setting [1]) was “detected”.

With `CCN(CC)CCCC(C)Nc1ccnc2cc(Cl)ccc12` (stereo not shown) [chloroquine], the cell death result in the series on HFF was “No cell death was observed”. In addition, the “phosphorylation of ATM protein” value in the series on ATM protein is “induced rapid and diffuse phosphorylation”. Also, the figures for the “Average Number of Colonies*” value in the series with HeLa cells (irradiated at 2 Gy) and in the series on HeLa cells (irradiated at 6 Gy) were 580 and 129, respectively. In the series on HeLa cells (HeLa cells, chloroquine prior to irradiation), the “increase in cell survival by treatment prior to irradiation” value stood at 30%. Regarding `NC(=O)NO` [hydroxyurea], the “Phosphorylation of ATM” value in the series with Ser^1981 in ATM was “Little or no phosphorylation”. Consider `Cc1cn([C@H]2C[C@H](O)[C@@H](CO)O2)c(=O)[nH]c1=O` [thymidine], for which the “Phosphorylation of ATM” value in the series with Ser^1981 in ATM is on record as “Little or no phosphorylation”. Turning to `COC[C@H]1OC(=O)c2coc3c2[C@@]1(C)C1=C(C3=O)[C@@H]2CCC(=O)[C@@]2(C)C[C@H]1OC(C)=O` [wortmannin], the “concentration effectively inhibiting phosphorylation of Ser^1981” value in the series with Ser^1981 of ATM was at least 20 µM.
